Measurements as given in a melting point compilation (Tetko et al.; mined from patent text by program, amines drawn as free bases though some values may be those of a salt).

melting point [°C] | Compound
259 | COc1ccc(C(=O)Nc2ccncc2)c2c1oc1ccc(C(F)(F)F)cc12
227 to 229 | CCNC(=O)CC1CN=C(c2cc3cc(Oc4ccc(S(C)(=O)=O)nc4)cc(CC)c3[nH]2)S1 (centres undefined)
99.1 to 99.6 | O=C1N(Cc2ccc(Cl)c(Cl)c2)C(=NCC(F)(F)F)SCN1c1ccccc1
125 to 127 | C=CCC1C(=O)CCCC1=O
169 to 170 | O=C(O)COc1ccc(C(F)(F)F)cc1C(=O)NCc1ccc(Br)cc1F
127 to 128 | Cc1ccc(-c2ncncc2C#N)cc1
> 300 | Oc1ncnc2c(-c3ccc(Br)cc3)cnn12
85 to 90 | CCCCCCCCCCCCCCCCCCC1CC(=O)N(c2ccc(N)cc2O)C1=O (centres undefined)
200 | COC(=O)c1cc2cc(OC)ccc2n1C
87 to 90 | CS(=O)(=O)Nc1cc(-c2ccc(S(C)(=O)=O)cc2)c(-c2ccc(F)cc2)s1
210 to 212 | COc1cc(C(C)C)c2c(c1OC)S(=O)(=O)NC2=O
227 to 228 | Cn1c(COc2ccc(CC3SC(=O)NC3=O)cc2)nc2ccc(Oc3ccc(NC(=O)C4CCCC4)cc3)cc21 (centres undefined)
265 to 267 | COc1cc2c(cc1OC)C(c1ccccc1)N1C(=O)CNC(=O)C1C2 (centres undefined)
149 to 150 | CC(C)(C)OC(=O)N[C@@H]1Cc2ccccc2C[C@H]1O (relative stereo)
109 to 112 | OCC1OC(n2cnc3c(NNC4COc5ccccc5C4)ncnc32)C(O)C1O (centres undefined)
127 to 129 | CC(C)n1c(=O)cc(C(F)(F)F)[nH]c1=O
217 to 218 | CCn1ncc(C(=O)c2ccc(S(C)(=O)=O)c(-n3nc(C)cc3C)c2Cl)c1O
230 to 231 | CCOC(=O)CS(=O)(=O)Cc1cccc(-c2c(CC(=O)Nc3ccc(F)cc3C(F)(F)F)c(=O)oc3cc(Cl)c(C)cc23)c1
75 to 77 | COc1ccc2c(c1)CCC1=C2CCC(=O)C1
303 | O=C(O)c1cn(-c2ccc(F)cc2)c2c(F)c(N3CCC(n4ccnn4)C3)c(F)cc2c1=O (centres undefined)

melting point [°C] | Compound
130 to 132 | CN1CCOc2cc([N+](=O)[O-])ccc2C1=O
212 | COc1cc(NNc2nccc(Nc3ccc(N(C)C)cc3)n2)cc(OC)c1OC
103 to 105 | CCOC(=O)c1cn(-c2cccc(Oc3ccc(Br)cn3)c2)cn1
195 to 196 | Cc1ccn2c(C)c(CCc3ccc4nc(NC(=N)N)oc4c3)nc2c1
158 to 159 | CN1C(c2ccc(Br)cc2)C2C(=O)N(Cc3ccc4c(c3)OCO4)C(O)C2C1(C)C (centres undefined)
57 to 65 | CC(C)(C)OCC1CNC(=O)O1 (centres undefined)
235 to 236 | O=[N+]([O-])c1cn2c(n1)O[C@@H](COc1ccc(N3CCN(S(=O)(=O)C(F)(F)C(F)(F)C(F)(F)C(F)(F)F)CC3)cc1)CC2
168 to 170 | COc1ccccc1C(=O)Nc1ccc(N2CCCC2)cc1C(C)=O
245 to 246 | CC(C)(C)Sc1c(CC(C)(C)C(=O)O)n(Cc2ccc(Cl)cc2)c2ccc(-c3ccccc3)cc12
144 to 146 | Cc1nc(N2CCc3ccccc3CC2)c(C#N)c(=O)n1NCC(F)(F)F
149 to 150 | CCOCc1c[nH]c(=O)c(N)c1Sc1cc(C)cc(C)c1
193 to 194 | Nc1ncnc2c1c(-c1ccc(Oc3ccccc3)cc1)cn2C1CC2CC(O)CC2C1 (centres undefined)
42 to 44 | O=C(CCl)C1=NOC(c2ccccc2F)C1 (centres undefined)
112 to 115 | O=C(NCCCN1CCC(c2ccccc2)(c2ccccc2)CC1)N1C(=O)OCC1c1ccc(F)c(Cl)c1 (centres undefined)
30 to 40 | CCCc1nc(Cl)cc(NC)n1
142 to 143 | CN(CCOc1ccc(CC(Cl)C(=O)O)cc1)c1nc2ccccc2o1 (centres undefined)
256 to 258 | N#Cc1cnc2c(sc3c(N)cccc32)c1Nc1cccc(Br)c1
234 to 235 | O=c1c(CCCc2cccnn2)cc2cccnc2n1-c1cccc([N+](=O)[O-])c1
192 to 195 | COc1cc2c(c3c1OC(C)(C)C3)C(c1ccc(N)cc1)=NC(C)(C)C2
106 to 107 | Cc1oc(-c2ccccc2)nc1CCOc1ccc(CON=C(CCC(=O)O)c2ccccc2)cc1

Second part, the compound before the results:

Compound | melting point [°C]
N#Cc1cccn1-c1cccc(C(=O)N=C(N)N)c1 | 136 to 138
CCOC(=O)C(=O)Nc1cc(C)c(C(=O)OCC)s1 | 141 to 142
Cc1cc(Nc2ccnc(Nc3ccc(S(=O)(=O)N(C)C4CCN(C)CC4)cc3)n2)ccc1F | 110 to 120
O=C1c2ccccc2C(=O)N1CCCCOc1ccc([N+](=O)[O-])cc1 | 112 to 114
CNC(=S)C1(c2cccnc2)CCCCC1=CCOc1ccc(O)cc1 (centres undefined) | 82 to 88
CCC(O)(c1ccc(O)cc1)c1cccc(Cl)c1 (centres undefined) | 132 to 134
COc1ccc2c(C=O)c(OCc3ccccc3)ccc2c1Br | 214 to 220
COc1ccc(-c2cc(=O)c3c(OC)c(I)c(OC)cc3o2)cc1 | 191 to 194
COc1nc2cc(Br)cc(C=O)c2nc1OC | 179 to 182
O=C(N[C@H]1CC[C@H](O)CC1)OCc1ccccc1 | 148 to 151
O[C@@]1(c2ccc(Cl)c(Cl)c2)CCC[C@H]2NCC[C@H]21 (racemic) | 190 to 191
COCC(C)(C)C(=O)O[C@H]1C[C@H](O)C=C2C=C[C@H](C)[C@H](CC[C@@H]3C[C@@H](O)CC(=O)O3)[C@H]21 | 140 to 142
CCCCCCCOc1ccc(-c2ccc(N=Nc3ccc([N+](=O)[O-])cc3)cc2)cc1 | 147 to 148
Cc1ccncc1C(N)=S | 104 to 106
COc1cccc2c(=O)nc(-c3ccccn3)sc12 | 191
Nc1ccc2ccc(OCc3ccc4ccccc4n3)cc2c1 | 164 to 166
c1ccc2c(c1)N=C(c1ccncc1)c1cccc3c1N2CC3 | 152 to 153
COc1ccc([C@H](Sc2ccccc2N)[C@@H](O)C(=O)Nc2ccccc2)cc1 | 215 to 217
O=C1OC(c2cccc3ccccc23)=NC1=Cc1ccccc1 | 134 to 137
Nc1nc2ccc(CCN3CCC(C(=O)c4ccccc4)CC3)cc2s1 | 186 to 188

Compound | melting point [°C]
COCCOc1ccc(/C=C/C(=O)NS(=O)(=O)c2ccccn2)c(Oc2ncc(C(F)(F)F)cc2Cl)c1 | 164 to 165
CC(C)(C)C(=O)C(=Cc1cccnc1)Oc1ccc(Cl)cc1 | 74 to 76
FC(F)(F)Sc1ccc(C(F)(F)F)cc1 | 30 to 31
OCc1cccc2c(Br)c3ccccc3cc12 | 125 to 127
COC(=O)c1cnnc2ccccc12 | 57 to 58
Cc1ccc(-c2cccc(-c3nc(C(C)C)[nH]c3-c3cccc(C)n3)c2)cc1 | 76 to 79
C[Si](C)(C)CCCCCCCCCCCNc1ccc(C(=O)O)cc1 | 121 to 122
COC(=O)C1(NC(=O)Cc2cc(Br)c(F)cc2C)CCN(OC)CC1 | 192 to 193
COc1ccc(S(=O)(=O)C(CCCc2ccccc2)CC(=O)O)cc1OC (centres undefined) | 161 to 162
CC(C)COc1ccc(N)cc1C#N | 88 to 93
CCCCCCCCCCCCCCCCCCCc1cc(N)cc(CCCCCCCCCCCCCCCCCCC)c1 | 51 to 53
CCOC(=O)c1c(=O)c2cc(F)c(Cl)cc2n2c(CN(C)C)csc12 | 276
CC(C)(C)C(NC(=O)CCc1cccnc1)Nc1c(Nc2cccnc2Cl)c(=O)c1=O (centres undefined) | 179 to 180
CCCCc1nc2c(N)nc3ccccc3c2n1CCCC(C)=O | 173 to 176
C=C1C(=O)c2ccccc2OC1(c1ccccc1)c1ccccc1 | 165 to 167
Cc1ccc(Cl)c(Nc2ccccc2CON=CC(=O)O)c1Cl | 185 to 187
Cc1cc(Cl)ccc1Cn1nc(OC(C)C)cc1CCCOc1ncccc1CC(=O)O | 97 to 98
CCCCCCCCC(C(=O)O)C(O)(CC(=O)O)C(=O)O (centres undefined) | 65.8 to 66.7
COc1ccc(-n2c(-c3ccc(S(N)(=O)=O)cc3)cc(C)c2Cl)cc1 | 155 to 156
CCc1cnc2c(NC(=O)c3c(Cl)cccc3Cl)cccc2c1C(N)=O | 247 to 248

Compound | melting point [°C]
O=C(NCc1ccc2c(Br)c(OC(Cc3ccccc3)C(=O)O)ccc2c1)c1ccc(Oc2cc(Cl)cc(Cl)c2)o1 (centres undefined) | 86 to 100
O=C(NCCOc1ccc(CC(Sc2nc3ccccc3o2)C(=O)O)cc1)c1ccc(-c2ccccn2)cc1 (centres undefined) | 66 to 67
Cc1nc(N2C[C@@H](C)N(Cc3ccc(F)cc3)C2=O)sc1C(=O)NCc1cncs1 | 66 to 69
Cc1ccncc1-c1nc(-c2ccc(S(N)(=O)=O)cc2)cs1 | 219
CN1C(=O)[C@H](NC(=O)C=Cc2ccc(Cl)cc2)N=C(c2ccccc2)c2ccccc21 | 203 to 205
C1=C(CCc2ccccc2)CCN(Cc2nc3ccccc3[nH]2)C1 | 177 to 179
COc1ccc(CCc2oc3cccc(OC(C)=O)c3c2C)cc1 | 66 to 69
O=C(O)Cc1ccc(NC(=O)C(Cn2ccnc2)NS(=O)(=O)c2ccc(Br)cc2)cc1 (racemic) | 131 to 140
C#CCOc1ccc2c(C)cc(=O)oc2c1C(=O)C=Cc1cccnc1 | 203 to 205
O=S(CCCCCOc1ccc(C2=C(c3ccccc3)CCCc3cc(O)ccc32)cc1)Cc1ccccn1 (centres undefined) | 176
COCC(COC)N1CCc2cc(Nc3ncc(Cl)c(Nc4ccc(C(N)=O)cc4OC)n3)c(OC)cc2CC1 | 220 to 223
CC(=O)NCc1ccc(CN2CCN(c3ccc(NC(C)=O)cc3)CC2)cc1 | 225 to 226
COc1c(F)cc(NN)cc1F | 60.5 to 62.3
O=C(c1ccc(I)cc1)c1ccc2[nH]c(=O)cc(-c3cccc(Cl)c3)c2c1 | 251
CC(C(=O)O)c1ccc2cc(OCC=Cc3ccccc3)ccc2c1 (centres undefined) | 175 to 177
CC(C)(C)N(NC(=O)c1ccccc1)C(=O)C1CCCCC1 | 202 to 204
N#Cc1ccc(C2=NNC(=O)C3CC23)cc1 (centres undefined) | 265 to 266
Cc1ccc(C(=S)Nc2cc(F)ccc2F)cc1 | 118 to 121
CC1(N2C(=O)c3cccc(N)c3C2=O)CCC(=O)NC1=O (centres undefined) | 268 to 269
